Experimental findings from US4886806A, “Flavone-3-carboxylic acids compounds and pharmaceutical compositions containing them” (Kali-Chemie Pharma GmbH, priority 1987, dated 1989) are described below.

Structures are written as SMILES.

Experiment [1] concerns carrageenin foot edema in male Wistar rats. Put plainly: Inhibition of carrageenin foot edema in rats (Winter et al.). The experiment is classed as in vivo. The settings on record: Rattus norvegicus, 2 h after irritant. The procedure:
A similar volume of isotonic sodium chloride solution was injected in the left hind foot. The volume of the each rat's foot was measured plethysmometrically both before and two hours after administration of the irritant, and the swelling of the foot volume after the carrageenin application was compared to the foot which was treated only with sodium chloride solution The inhibition of edema formation by the test substances in the treated animals was compared in percentage terms with the animals of the untreated control group.

Experiment [2] has as its system oxygen radical-forming activity of peritoneal exudate cells (PEC) of mice. The experiment can be described thus: Spontaneous CL and induced CL chemiluminescence test: inhibition of oxygen radical liberation from peritoneal exudate cells (30 min preincubation). Details: concentration or dose not given beside the values. To be noted: for Inhibition in vitro of the oxygen radical liberation, Chemiluminescence Test % inhibition, Ind. CL: induced CL, after ZyC3b activation; for Inhibition in vitro of the oxygen radical liberation, Chemiluminescence Test % inhibition, Spnt. CL: spontaneous CL, before ZyC3b. The experiment is classed as cell-based. As for the experimental part: 1. To determine the inhibiting effect on the oxygen radical-forming activity of inflamed cells, the in vitro inhibition of the release of oxygen radicals from activated peritoneal exudate cells (=PEC) of mice was determined in the chemiluminescence (CL) test according to the method of Mueller-Peddinghaus (Int. J. Immunopharmac. 6, 455-466 (1984)). […] The intensity of the chemiluminescence is a measurement of the oxygen radical content in the suspension and thus the degree of activity of the inflamed cells. In this, three functionally different parameters are detected, the spontaneous CL, the induced CL and the peak CL. The spontaneous CL and the induced CL on the one hand and the peak CL on the other hand differ from each other because in the first two parameters the test substances are in contact with the cells for a 30 minute preincubation period before the inflammation irritant is added, whereas with the peak CL the cells are first stimulated, and the test substance is added at the peak of their activity. The measurement of the spontaneous CL thus detects the influence of the test substance on the relative rest activity of inflamed cells, the induced CL represents the effect of the test substances on the activatability of the cells and the inhibition of the peak CL indicates the effect of the test substances on the maximum activity of the inflamed cells. 1.1 Production of PEC suspension used in the test. In order to induce the PEC formation, female mice of 20-25 g body weight were each injected i.p. with 2 ml of a 3% solution of thioglycollate in sterile isotonic sodium chloride solution. Twenty four hours after the thioglycollate injection the cells, which predominantly consisted of polymorphonuclear leucocytes, were recovered by washing out of the abdominal cavity and washed twice. As cell culture medium there was added a commercially available solution under the designation RPMI 1640 (pH 7.2) (produced by Flow Laboratories, […], Germany), which contains 10% fetal calf serum (FCS, produced by Seromed GmbH, Munich, Germany) 18 μmol/l sodium bicarbonate and 2 μmol/l L-glutamine. The cell pellets of four animals each time were resuspended in cell culture medium, collected together and the suspension was made up to 2×10^6 cells per ml with cell culture medium. The cell suspensions were kept under ice cooling until their use the same day. 1.2 Production of the complement opsonized zymosan (=ZyC3 b) suspension used for activation. 200 mg zymosan (glycoprotein mixture isolated from the cell walls of brewer's yeast, Sacchomyces […], produced by Sigma Chemical Co., Munich, Germany) were suspended in 10 ml phosphate buffer solution according to Dulbecco (produced by Flow Laboratories, […], Germany), well stirred and heated for thirty minutes in a water bath to 100° C. After cooling, it was centrifuged for five minutes at 4° C. and at 600 ×g and the supernatant was discarded. The sediment was resuspended in 50 ml human serum and incubated for thirty minutes at 37° C. in a shaking water bath. Then it was centrifuged for five minutes at 600 ×g and 420 C., the supernatant decanted and the sediment washed with phosphate buffer solution. The working suspension of 8×10^-3 g ZyC3 b/ml was produced from the sediment by dilution with phosphate buffer solution (Mueller-Peddinghaus et al., Zbl. Vet. Med. B. 30, 559-575). 1.3 Chemiluminescence (CL) measurement (Peak-CL). […] At the end of this preincubation phase, 100 μl lucigenin were added, and in the course of the subsequent sixteen minute incubation phase the spontaneous CL parameter was determined with two measuring points. Then 100 μl ZyC3 b+100 μl phosphate buffer were added, and during the course of the subsequent twenty-four minute cell activation the induced CL parameter was measured with three measuring points. All measurements were determined twice. The parameters spontaneous CL and induced CL were determined on the same day with two separate cell pools.

A further experiment concerns Lipoxygenase. The experiment can be described thus: LTB4 synthesis and inhibition test (lipoxygenase inhibition in vitro) in polymorphonuclear leucocytes. The experiment is classed as cell-based. The settings on record: Homo sapiens, PMNL, 10^-4 Mol/l, Ca-ionophore A 23187, arachidonic acid, read-out: Lipoxygenase inhib. in vitro, % inhibition of the LTB4 synthesis at 10^-4 Mol/l. As for the experimental part:
2. In order to investigate the lipoxygenase-inhibiting properties, the inhibiting effect of the substances on the biosynthesis of leucotriene B4 (=LTB4) from arachidonic acid by activated inflamed cells was determined in vitro. Leucotriene B4, a dihydroxy fatty acid which plays an important role not only in the inflammation but also in allergic reactions was oxidatively formed, starting from arachidonic acid, by oxidation through the action of the enzyme lipoxygenase.
LTB4 Synthesis and Inhibition Test.
The combined extracts were evaporated under vacuum to dryness and the residue was taken up in 0.5 ml 30% aqueous methanol and was analyzed with the aid of high pressure liquid chromatography with phase reversal (=reversed phase-HPLC). The stationary phase (=separating medium) consisted of silica gel containing octadecyl groups chemically bound thereto (=RSIL C18 HP; produced by Autech, Darfield, Ill.). The solvent mixture is methanol:water:acetic acid (67:33:0.1; v/v/v), which had been adjusted to a pH value of 6.2 with NH3 /H2 O. The flow velocity was 1 ml/min. […] The LTB4 signals were compared with those of the control (cell incubation with solvent) and reported as percent inhibition of LTB4 synthesis compared with the controls.

In experiment [3] the test system is oxygen radical-forming activity of activated peritoneal exudate cells (PEC) of mice. The experiment can be described thus: Peak chemiluminescence (CL) test: inhibition of oxygen radical liberation from activated peritoneal exudate cells. It counts as cell-based. The settings on record: Mus musculus, 10^-4 Mol substance/l, added at peak of cell activity, read-out: Inhibition in vitro of the oxygen radical liberation, Chemiluminescence Test % inhibition, Pk. CL. As for the experimental part: 1. To determine the inhibiting effect on the oxygen radical-forming activity of inflamed cells, the in vitro inhibition of the release of oxygen radicals from activated peritoneal exudate cells (=PEC) of mice was determined in the chemiluminescence (CL) test according to the method of Mueller-Peddinghaus (Int. J. Immunopharmac. 6, 455-466 (1984)). […] The intensity of the chemiluminescence is a measurement of the oxygen radical content in the suspension and thus the degree of activity of the inflamed cells. In this, three functionally different parameters are detected, the spontaneous CL, the induced CL and the peak CL. The spontaneous CL and the induced CL on the one hand and the peak CL on the other hand differ from each other because in the first two parameters the test substances are in contact with the cells for a 30 minute preincubation period before the inflammation irritant is added, whereas with the peak CL the cells are first stimulated, and the test substance is added at the peak of their activity. The measurement of the spontaneous CL thus detects the influence of the test substance on the relative rest activity of inflamed cells, the induced CL represents the effect of the test substances on the activatability of the cells and the inhibition of the peak CL indicates the effect of the test substances on the maximum activity of the inflamed cells. 1.1 Production of PEC suspension used in the test. In order to induce the PEC formation, female mice of 20-25 g body weight were each injected i.p. with 2 ml of a 3% solution of thioglycollate in sterile isotonic sodium chloride solution. Twenty four hours after the thioglycollate injection the cells, which predominantly consisted of polymorphonuclear leucocytes, were recovered by washing out of the abdominal cavity and washed twice. As cell culture medium there was added a commercially available solution under the designation RPMI 1640 (pH 7.2) (produced by Flow Laboratories, […], Germany), which contains 10% fetal calf serum (FCS, produced by Seromed GmbH, Munich, Germany) 18 μmol/l sodium bicarbonate and 2 μmol/l L-glutamine. The cell pellets of four animals each time were resuspended in cell culture medium, collected together and the suspension was made up to 2×10^6 cells per ml with cell culture medium. The cell suspensions were kept under ice cooling until their use the same day. 1.2 Production of the complement opsonized zymosan (=ZyC3 b) suspension used for activation. 200 mg zymosan (glycoprotein mixture isolated from the cell walls of brewer's yeast, Sacchomyces […], produced by Sigma Chemical Co., Munich, Germany) were suspended in 10 ml phosphate buffer solution according to Dulbecco (produced by Flow Laboratories, […], Germany), well stirred and heated for thirty minutes in a water bath to 100° C. After cooling, it was centrifuged for five minutes at 4° C. and at 600 ×g and the supernatant was discarded. The sediment was resuspended in 50 ml human serum and incubated for thirty minutes at 37° C. in a shaking water bath. Then it was centrifuged for five minutes at 600 ×g and 420 C., the supernatant decanted and the sediment washed with phosphate buffer solution. The working suspension of 8×10^-3 g ZyC3 b/ml was produced from the sediment by dilution with phosphate buffer solution (Mueller-Peddinghaus et al., Zbl. Vet. Med. B. 30, 559-575). 1.3 Chemiluminescence (CL) measurement (Peak-CL). The PEC suspension was divided into samples of 100 μl each, placed in test tubes, and these were incubated for ten minutes at a temperature of 3720 C. in a measurement device (Chemiluminescence analyzer, Laboratorium Prof. Berthold, Wildbad, Germany). Then in order to amplify the chemiluminescence, 100 μl lucigenin solution was added (final concentration 1.54×10^-4 mol/l) and incubated for 16 more minutes. The cells were then activated by the addition of 100 μl of the ZyC3 b suspension produced as described in section 1.2 plus 100 μl phosphate buffer solution. […]

In experiment [1] (po, 100 μmol/kg p.o.), `CN1CCN(C(=O)c2c(-c3ccccc3)oc3ccccc3c2=O)CC1` [Example 16a] showed an inhibition in vivo at 100 µmol/kg of 20%.

Consider `O=C(NCCCCN1CCN(c2ncccn2)CC1)c1c(-c2ccccc2)oc2ccccc2c1=O` [Example 25], for which the inhibition in vivo at 215 µmol/kg was 58% in experiment [1] (ip, 215 μmol/kg i.p.) and 25% in experiment [1] (po, 215 μmol/kg p.o.).

`O=C(NCCCC[N+]1([O-])CC[N+]([O-])(c2cccc[n+]2[O-])CC1)c1c(-c2ccccc2)oc2ccccc2c1=O` (stereo not drawn) [Example 26]: in experiment [2], the “Inhibition in vitro of the oxygen radical liberation, Chemiluminescence Test % inhibition, Ind. CL” value is listed as 3% and the “Inhibition in vitro of the oxygen radical liberation, Chemiluminescence Test % inhibition, Spnt. CL” value turned out to be 13%. For the same molecule, the inhibition at 100 µM in the experiment on Lipoxygenase worked out at 43%. Besides, in experiment [3], the inhibition at 100 µM (stock) came to 10%.

Regarding `O=C(c1c(-c2ccc(O)c(O)c2)oc2ccccc2c1=O)N1CCN(c2ccccn2)CC1` [Example 29], in experiment [2], the “Inhibition in vitro of the oxygen radical liberation, Chemiluminescence Test % inhibition, Ind. CL” value came to 74% and the “Inhibition in vitro of the oxygen radical liberation, Chemiluminescence Test % inhibition, Spnt. CL” value is 65%. Moreover, the inhibition at 100 µM in the experiment with Lipoxygenase is 97%. The inhibition at 100 µM (stock) in experiment [3] was 75%.

For `O=C(c1c(-c2ccccc2Cl)oc2ccccc2c1=O)N1CCN(c2ccccn2)CC1` [Example 35], the inhibition at 100 µM in the experiment on Lipoxygenase stood at 100%.

`CCCCCCCCCCCCCCCCOc1ccc(-c2oc3ccccc3c(=O)c2C(=O)N2CCN(Cc3ccccc3)CC2)cc1` [Example 36] showed an inhibition in vivo at 215 µmol/kg in experiment [1] (po, 215 μmol/kg p.o.) of 30%.

In the case of `CC(=O)Oc1cc(-c2oc3ccccc3c(=O)c2C(=O)N2CCN(Cc3ccccc3)CC2)cc(OC(C)=O)c1OC(C)=O` [Example 42b], in experiment [2], the “Inhibition in vitro of the oxygen radical liberation, Chemiluminescence Test % inhibition, Ind. CL” value amounted to 100% and the “Inhibition in vitro of the oxygen radical liberation, Chemiluminescence Test % inhibition, Spnt. CL” value was 99%. Also, the inhibition at 100 µM in the experiment on Lipoxygenase stood at 100%. The inhibition at 100 µM (stock) in experiment [3] was 99%.

As to `COc1cc(-c2oc3ccccc3c(=O)c2C(=O)NCCCC[N+]2([O-])CC[N+]([O-])(Cc3ccccc3)CC2)cc(OC)c1OC` (stereo not drawn) [Example 52], in experiment [1] (ip, 215 μmol/kg i.p.), the inhibition in vivo at 215 µmol/kg turned out to be 53%.
